# Experimental data published in PMC10914731, “Homo-BacPROTAC-induced degradation of ClpC1 as a strategy against drug-resistant mycobacteria” (Nature Communications, 2024).
# “And” between values parts separate entries of the source, which are not always exact repeats. Equal values may be shown once. Read-outs that look alike come from different tables or passages of the source.
# Legend:
# [1] = target: ClpC1-NTD substrate, M. tuberculosis ClpC1P1P2 (Mycobacterium tuberculosis, UniProt P9WPC9); assay: biochemical; format: biochemical; conditions: Mtb; mean of the measurements; read-out: DC50, Mean
# Sequence of ClpC1-NTD substrate, M. tuberculosis ClpC1P1P2 (P9WPC5 whole entry): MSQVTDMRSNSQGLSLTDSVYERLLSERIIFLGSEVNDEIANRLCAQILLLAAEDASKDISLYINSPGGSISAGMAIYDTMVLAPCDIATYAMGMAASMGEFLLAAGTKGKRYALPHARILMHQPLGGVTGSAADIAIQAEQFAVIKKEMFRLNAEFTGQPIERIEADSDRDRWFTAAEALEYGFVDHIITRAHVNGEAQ
# Sequence of ClpC1-NTD substrate, M. tuberculosis ClpC1P1P2 (P9WPC9 whole entry): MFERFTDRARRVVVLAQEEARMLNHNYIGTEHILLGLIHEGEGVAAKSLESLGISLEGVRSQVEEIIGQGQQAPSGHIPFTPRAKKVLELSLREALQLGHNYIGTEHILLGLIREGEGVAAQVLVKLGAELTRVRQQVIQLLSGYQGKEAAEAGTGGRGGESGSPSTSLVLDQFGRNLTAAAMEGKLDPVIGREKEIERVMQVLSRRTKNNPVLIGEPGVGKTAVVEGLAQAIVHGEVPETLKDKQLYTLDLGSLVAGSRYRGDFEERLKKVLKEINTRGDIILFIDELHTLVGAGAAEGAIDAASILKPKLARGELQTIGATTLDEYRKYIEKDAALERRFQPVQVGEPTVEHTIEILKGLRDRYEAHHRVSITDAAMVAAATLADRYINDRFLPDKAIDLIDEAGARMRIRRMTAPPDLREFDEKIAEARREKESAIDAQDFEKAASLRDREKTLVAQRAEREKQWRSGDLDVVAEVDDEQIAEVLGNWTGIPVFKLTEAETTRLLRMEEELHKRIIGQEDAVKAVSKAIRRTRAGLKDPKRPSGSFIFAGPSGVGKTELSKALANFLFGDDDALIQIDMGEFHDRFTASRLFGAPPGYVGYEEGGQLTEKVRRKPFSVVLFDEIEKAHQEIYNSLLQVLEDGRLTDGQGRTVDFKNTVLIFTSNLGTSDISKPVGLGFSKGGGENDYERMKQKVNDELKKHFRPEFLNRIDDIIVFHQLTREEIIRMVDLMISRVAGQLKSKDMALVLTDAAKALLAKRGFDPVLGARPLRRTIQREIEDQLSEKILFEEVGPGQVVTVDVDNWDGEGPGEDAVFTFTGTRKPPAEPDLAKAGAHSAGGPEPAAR
# Sequence of ClpC1-NTD substrate, M. tuberculosis ClpC1P1P2 (P9WPC3 whole entry, further chain): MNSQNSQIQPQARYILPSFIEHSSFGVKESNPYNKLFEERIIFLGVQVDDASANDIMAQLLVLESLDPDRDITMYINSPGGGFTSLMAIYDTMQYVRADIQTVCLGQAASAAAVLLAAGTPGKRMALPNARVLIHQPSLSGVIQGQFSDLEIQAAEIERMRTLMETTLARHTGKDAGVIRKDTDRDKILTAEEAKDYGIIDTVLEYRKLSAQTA
# [2] = Hepatocyte stability, mice; format: in vitro ADME
# Procedure, shortened: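 Clearance expressed as % of liver blood flow (% Qh), derived from half-life via the well-stirred liver model. Compound at 1 µM final was incubated up to 6 h with ~1 million cells/mL hepatocytes in 50% serum buffer, 37 °C, pH 7.4.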
# Mtb H37Rv = assay: Minimum bactericidal concentration (MBC), Mtb H37Rv; format: cell-based, Mycobacterium tuberculosis; conditions: for MBC: Mycobacterium tuberculosis, H37RV
# [3] = tested on: non-replicating cells of Mtb H37Rv; format: cell-based, Mycobacterium tuberculosis; conditions: for Supplementary Figure 2 dose-response value, starvation-induced non-replicating H37Rv cells: three replicate columns
# Msm #607 = assay: Minimum bactericidal concentration (MBC), Msm #607; format: cell-based, Mycobacterium smegmatis; conditions: for MBC: Mycolicibacterium smegmatis
# in vivo [4] = format: in vivo, BALB/cAnNCrl mice; conditions: for Plasma concentration 6 h / Plasma concentration 24 h / AUC0-inf/Dose / AUC0-t/Dose / CL / CL PL QH / Cmax/Dose / MRT / Plasma concentration 0.1 h / Plasma concentration 0.5 h / Plasma concentration 1 h / Plasma concentration 2 h / Plasma concentration 4 h / Vss / t1/2: iv bolus; for Plasma concentration 6 h / Plasma concentration 24 h: BLOQ <1.00 nmol/l
# Description: (§1) The in-life experimental procedures were conducted in strict compliance with German and European animal welfare legislation in an AAALAC-accredited facility. Male BALB/cAnNCrl mice (Charles River Laboratories Research Models and Services, 97633 Sulzfeld, Germany) were used. Animals were 9 weeks old at dosing with a body weight of 21.6–24.3 g. Animals were delivered free of pathogens according to FELASA recommendations with a health certificate provided by the breeder. Upon receipt, the state of health and sex was checked. Animals acclimatized for at least 5 days before the commencement of the in-life phase. During acclimation, animals were group-housed in individually ventilated cages, on birch wood granulate bedding with species-specific enrichment (nesting material, mouse igloo, gnawing wood). During experimental conduct, animals were housed in conventional cages with elevated grid floors. Grid floor was used to avoid contamination with test item material excreted via urine and feces and subsequent reuptake during fur grooming. No bedding and enrichment were provided except a cage divider, which can be used as a shelter. Animals always had unlimited access to food and water and received a pelleted, total pathogen-free maintenance diet and tap drinking water, sterilized by filter.
# In case of incomplete dissolution, the formulation was filtered at 40 °C (non-pyrogenic sterile-R filter, 0.2 µm). All formulations were stirred warm until administration. Actual test item content was determined bioanalytically.
# (§2) Male BALB/cAnNCrl mice (n = 3 per test item and administration route) received a bolus dose of the formulated test item(s) (1 mg/kg iv, 30 mg/kg po) at t = 0 h, and whole blood samples were collected subsequently (35 µl at 0.1 (iv) / 0.25 (po), 0.5, 1, 2, 4, 6 h; 600 µl at sacrifice after 24 h). Animals were euthanized by exsanguination in deep isoflurane anesthesia. Whole blood samples were immediately stored on ice at about 4 °C. Plasma was separated by centrifugation at approximately 10,000 × g for 5 m at +4 °C. Centrifugation of each blood sample was started within 10 m after collection. A single aliquot of at least 15 µL of plasma was prepared and immediately stored at −20 ± 5 °C.
# (§3) Sample proteins were precipitated with ACN (1 + 12, v/v) containing internal standard, and supernatants analyzed by quantitative UPLC-MS/MS: Phenomenex Luna Omega C18, 2.1 × 50 mm, 1.6 µm, 40 °C, gradient between 10% - 90% ACN with 0.1% formic acid. LogD determination: Lipophilicity of the test items, expressed as chromLogD7.5, was assessed by measuring their chromatographic retention times on C18-material. The chromatographic retention versus logD7.5 values of a series of thirteen n-alkan-2-ones (2-butanone – 2-hexadecanone) served as lipophilicity calibration.
# [5] = tested on: Mtb H37Rv in THP-1 macrophages; assay: Intracellular MIC assay in THP-1 macrophages; format: cell-based, Mycobacterium tuberculosis; design: Emax: unit not given here
# in vivo [6] = format: in vivo, BALB/cAnNCrl mice
# Description: as §1
# On the day before dosing, test item(s) were suspended in kleptose (20% in WFI) under continuous stirring (3.0 mg/ml). Following 2 min vortexing and 1 h stirring, the formulation was sonicated at 60 °C for 30 min and stirred at ambient temperature overnight. Before dosing, the formulation was vortexed for 2 min followed by ultraturrax treatment for 2 min.
# as §2, §3
# [7] = dose-normalized, mice, 1 mg kg-1 iv bolus
# [8] = individual animals 1-3, listed as 8 (UdSBI-0545)
# [9] = oral gavage 30 mg/kg, mice, Mean, BLOQ <1.00 nmol/L
compound,measurement,setting,value
COC(c1ccccc1)C1NC(=O)C(C)NC(=O)C(CC(C)CO)N(C)C(=O)C(Cc2cn(Cc3cn(CCOCCOCCOCCOCCn4cc(Cn5cc(CC6NC(=O)C(C(C)C)NC(=O)C(CC(C)C)N(C)C(=O)C(C(C)C)NC(=O)C(C(OC)c7ccccc7)NC(=O)C(C)NC(=O)C(CC(C)CO)N(C)C6=O)c6ccccc65)nn4)nn3)c3ccccc23)NC(=O)C(C(C)C)NC(=O)C(CC(C)C)N(C)C(=O)C(C(C)C)NC1=O (stereo not drawn) [Compound 8],DC50,[1],8.3 µM
same,Hepatocyte Stability Mouse QH,[2]; Mouse,50.268%
same,Hepatocyte Mice,[2]; clearance in hepatocytes,32 %Qh
same,colony growth after replating (MBC assay),"Mtb H37Rv; Mtb H37Rv, result in words",did not form any colonies at concentrations at or above the MIC value
same,MBC,Mtb H37Rv; read-out: MBC (from Set 3) Mtb H37Rv,0.22 µg/mL and 0.1 µM
same,MBC,"Mtb H37Rv; individual example, read-out: MBC Mtb H37Rv",0.1 µM and 0.2 µg/mL
same,"Supplementary Figure 2 dose-response value, starvation-induced non-replicating H37Rv cells",[3]; Conc. 0.0488281 µM,101.903 and 93.5529 and 95.5846
same,"Supplementary Figure 2 dose-response value, starvation-induced non-replicating H37Rv cells",[3]; Conc. 0.195312 µM,93.6246 and 84.7332 and 86.7409
same,"Supplementary Figure 2 dose-response value, starvation-induced non-replicating H37Rv cells",[3]; Conc. 0.390625 µM,90.2545 and 83.1636 and 86.2868
same,"Supplementary Figure 2 dose-response value, starvation-induced non-replicating H37Rv cells",[3]; Conc. 0.78125 µM,91.9834 and 86.6134 and 81.2993
same,"Supplementary Figure 2 dose-response value, starvation-induced non-replicating H37Rv cells",[3]; Conc. 1.5625 µM,90.366 and 86 and 85.5618
same,"Supplementary Figure 2 dose-response value, starvation-induced non-replicating H37Rv cells",[3]; Conc. 3.125 µM,93.9114 and 69.2927 and 87.5137
same,"Supplementary Figure 2 dose-response value, starvation-induced non-replicating H37Rv cells",[3]; Conc. 6.25 µM,87.458 and 76.4871 and 82.7732
same,"Supplementary Figure 2 dose-response value, starvation-induced non-replicating H37Rv cells",[3]; Conc. 25 µM,86.1354 and 89.2267 and 87.4022
same,"Supplementary Figure 2 dose-response value, starvation-induced non-replicating H37Rv cells",[3]; Conc. 50 µM,91.1707 and 85.8088 and 84.3747
same,"Supplementary Figure 2 dose-response value, starvation-induced non-replicating H37Rv cells",[3]; Conc. 100 µM,92.3658 and 81.0443 and 90.6608
same,inhibitory activity on non-growing Mtb H37Rv,"[3]; starvation for three weeks, result in words",lost their inhibitory activity
same,colony growth after replating (MBC assay),"Msm #607; Msm #607, up to 50 µM, result in words",growth of colonies could be observed across all tested concentrations
same,MBC,"Msm #607; ATCC607, read-out: MBC (from Set 3) Msm ATCC 607",> 109 µg/mL and > 50 µM
same,MBC,"Msm #607; read-out: MBC Msm #607, individual example",> 50 µM and > 108 µg/mL
same,AUC,in vivo [4]; [7],8580 h nM/(nmol kg-1)
same,Cmax,in vivo [4]; [7],6710 nM/(nmol kg-1)
same,Plasma concentration 6 h,in vivo [4]; [8],0.0908 µM and 0.118 µM and 0.0778 µM
same,Plasma concentration 24 h,in vivo [4]; [8],0.0148 µM and 0.0182 µM and 0.0133 µM
same,AUC0-inf/Dose,in vivo [4]; [8],7860 h nM/(nmol kg-1) and 10400 h nM/(nmol kg-1) and 8420 h nM/(nmol kg-1)
same,AUC0-t/Dose,in vivo [4]; [8],7540 h nM/(nmol kg-1) and 10000 h nM/(nmol kg-1) and 8140 h nM/(nmol kg-1)
same,CL,in vivo [4]; [8],0.126 L/h/kg and 0.096 L/h/kg and 0.12 L/h/kg
same,CL PL QH,in vivo [4]; [8],2.4% and 1.8% and 2.2%
same,Cmax/Dose,in vivo [4]; [8],5300 nM/(nmol kg-1) and 7400 nM/(nmol kg-1) and 7420 nM/(nmol kg-1)
same,MRT,in vivo [4]; [8],4.5 h and 4.3 h and 3.8 h
same,Plasma concentration 0.1 h,in vivo [4]; [8],2.44 µM and 3.41 µM and 3.42 µM
same,Plasma concentration 0.5 h,in vivo [4]; [8],1.65 µM and 1.9 µM and 1.85 µM
same,Plasma concentration 1 h,in vivo [4]; [8],0.655 µM and 1.14 µM and 0.855 µM
same,Plasma concentration 2 h,in vivo [4]; [8],0.328 µM and 0.402 µM and 0.307 µM
same,Plasma concentration 4 h,in vivo [4]; [8],0.11 µM and 0.144 µM and 0.117 µM
same,Vss,in vivo [4]; [8],0.6 L/kg and 0.4 L/kg and 0.5 L/kg
same,t1/2,in vivo [4]; [8],6.9 h and 6.7 h and 6.6 h
same,AUC0-inf/Dose,"in vivo [4]; mice, Mean",8900 h nM/(nmol kg-1)
same,AUC0-t/Dose,"in vivo [4]; mice, Mean",8580 h nM/(nmol kg-1)
same,CL,"in vivo [4]; mice, Mean",0.114 L/h/kg
same,CL PL QH,"in vivo [4]; mice, Mean",2.1%
same,Cmax/Dose,"in vivo [4]; mice, Mean",6710 nM/(nmol kg-1)
same,MRT,"in vivo [4]; mice, Mean",4.2 h
same,Plasma concentration 0.1 h,"in vivo [4]; mice, Mean",3.09 µM
same,Plasma concentration 0.5 h,"in vivo [4]; mice, Mean",1.8 µM
same,Plasma concentration 1 h,"in vivo [4]; mice, Mean",0.883 µM
same,Plasma concentration 2 h,"in vivo [4]; mice, Mean",0.346 µM
same,Plasma concentration 4 h,"in vivo [4]; mice, Mean",0.124 µM
same,Vss,"in vivo [4]; mice, Mean",0.5 L/kg
same,t1/2,"in vivo [4]; mice, Mean",6.7 h
same,Plasma concentration 6 h,"in vivo [4]; mice, Mean",0.0955 µM
same,Plasma concentration 24 h,"in vivo [4]; mice, Mean",0.0154 µM
same,VSS,"in vivo [4]; mice, 1 mg kg-1 iv bolus",0.48 L/kg
same,Cl,"in vivo [4]; plasma clearance, mice, 1 mg kg-1 iv bolus",0.114 L/h/kg
same,T1/2,"in vivo [4]; plasma, mice, 1 mg kg-1 iv bolus",6.74 h
same,Emax,[5],1.27
same,intracellular viable mycobacteria,"[5]; 0.19µM, Day 4, well replicates",5.45 log10 cfu/ml
same,intracellular viable mycobacteria,"[5]; 0.19µM, Day 7, well replicates",5.56 log10 cfu/ml
same,intracellular viable mycobacteria,"[5]; 0.781µM, Day 4, well replicates",4.88 log10 cfu/ml
same,intracellular viable mycobacteria,"[5]; 0.781µM, Day 7, well replicates",4.81 log10 cfu/ml
same,intracellular viable mycobacteria,"[5]; 3.125µM, Day 4, well replicates",4.56 log10 cfu/ml
same,intracellular viable mycobacteria,"[5]; 3.125µM, Day 7, well replicates",4.31 log10 cfu/ml and 4.3 log10 cfu/ml
same,intracellular viable mycobacteria,"[5]; 50µM, Day 4, well replicates",4.3 log10 cfu/ml
same,intracellular viable mycobacteria,"[5]; 50µM, Day 7, well replicates",3.92 log10 cfu/ml and 3.9 log10 cfu/ml
same,Plasma concentration 0.5 h,in vivo [6]; [9],0.0194 µM
same,Plasma concentration 1 h,in vivo [6]; [9],0.0181 µM
same,Plasma concentration 2 h,in vivo [6]; [9],0.026 µM
same,Plasma concentration 4 h,in vivo [6]; [9],0.0318 µM
same,Plasma concentration 6 h,in vivo [6]; [9],0.0325 µM
same,Plasma concentration 24 h,in vivo [6]; [9],0.0967 µM
same,Plasma concentration […],in vivo [6]; [9],0.0257 µM
same,Plasma concentration 24 h,"in vivo [6]; oral gavage, individual animals 1-3, BLOQ <1.00 nmol/L, listed as 8 (UdSBI-0545)",0.101 µM and 0.0924 µM
same,Cmax/Dose,"in vivo [6]; oral gavage, mice, Mean",10.4 nM/nmol/kg
same,tmax,"in vivo [6]; oral gavage, mice, Mean",24.0 h
same,AUC0-t/Dose,"in vivo [6]; oral gavage, mice, Mean (compound 6: maximum potential value with 1 nM for each time point)",165 h*nM/nmol/kg
